From publication PMC11868595, “Safety, pharmacokinetics and efficacy of HA121-28 in patients with advanced solid tumors and RET fusion-positive non-small-cell lung cancer: a multicenter, open-label, single-arm phase 1/2 trial” (Signal Transduction and Targeted Therapy, 2025)
Marks after values point to notes of the source that are not given here.

How the values were obtained:
[1] = system: human melanoma A375 tumors; assay: A375 tumors in nude mice; format: in vivo
[2] = Tissue distribution in rats; format: in vivo; conditions: for time of distribution peak: intragastric
Rat plasma kinetics = format: in vivo
EphA1 = EphA1 (Homo sapiens, UniProt P21709); assay: Tyrosine kinase inhibition; format: biochemical
Chain of EphA1 (P21709 26-976): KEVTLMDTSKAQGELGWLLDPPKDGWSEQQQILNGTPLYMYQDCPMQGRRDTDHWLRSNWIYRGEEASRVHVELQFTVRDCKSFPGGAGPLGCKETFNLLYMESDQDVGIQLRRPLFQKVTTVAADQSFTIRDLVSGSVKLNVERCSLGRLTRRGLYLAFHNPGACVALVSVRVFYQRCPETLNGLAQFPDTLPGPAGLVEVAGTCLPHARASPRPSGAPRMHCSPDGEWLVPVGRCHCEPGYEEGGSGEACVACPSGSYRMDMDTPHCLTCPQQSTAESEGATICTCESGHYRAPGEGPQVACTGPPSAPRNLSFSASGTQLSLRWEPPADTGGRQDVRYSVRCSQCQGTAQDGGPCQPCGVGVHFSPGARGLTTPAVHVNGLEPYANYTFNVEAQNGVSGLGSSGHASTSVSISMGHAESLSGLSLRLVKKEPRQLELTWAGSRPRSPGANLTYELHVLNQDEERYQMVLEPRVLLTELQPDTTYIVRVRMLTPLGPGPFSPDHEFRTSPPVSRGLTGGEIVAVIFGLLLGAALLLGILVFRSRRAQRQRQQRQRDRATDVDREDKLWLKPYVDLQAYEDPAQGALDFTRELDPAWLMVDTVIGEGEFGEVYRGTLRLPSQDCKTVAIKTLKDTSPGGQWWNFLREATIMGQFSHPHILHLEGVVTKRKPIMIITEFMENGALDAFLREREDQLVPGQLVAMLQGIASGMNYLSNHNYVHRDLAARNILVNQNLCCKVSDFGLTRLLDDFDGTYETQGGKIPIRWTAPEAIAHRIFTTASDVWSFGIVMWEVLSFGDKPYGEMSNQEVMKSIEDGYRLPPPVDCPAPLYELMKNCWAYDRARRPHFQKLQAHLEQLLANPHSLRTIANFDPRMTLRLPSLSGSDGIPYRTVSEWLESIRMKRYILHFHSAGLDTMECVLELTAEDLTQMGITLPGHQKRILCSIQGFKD

Metabolites in plasma = conditions: rats
[3] = Cynomolgus monkey plasma kinetics; format: in vivo
[4] = Safety pharmacology: respiratory function and neurological behavior; format: in vivo, rats; conditions: single oral dose 30, 100, and 300 mg/kg
VEGFR and ERK activation = assay: VEGF165-stimulated activation of VEGFR and ERK in HUVEC cells; format: cell-based, human; conditions: 50 ng/mL VEGF165, concentration-dependent
BTK = BTK (Homo sapiens, UniProt Q06187); assay: Tyrosine kinase inhibition; format: biochemical
Chain of BTK (Q06187 whole entry): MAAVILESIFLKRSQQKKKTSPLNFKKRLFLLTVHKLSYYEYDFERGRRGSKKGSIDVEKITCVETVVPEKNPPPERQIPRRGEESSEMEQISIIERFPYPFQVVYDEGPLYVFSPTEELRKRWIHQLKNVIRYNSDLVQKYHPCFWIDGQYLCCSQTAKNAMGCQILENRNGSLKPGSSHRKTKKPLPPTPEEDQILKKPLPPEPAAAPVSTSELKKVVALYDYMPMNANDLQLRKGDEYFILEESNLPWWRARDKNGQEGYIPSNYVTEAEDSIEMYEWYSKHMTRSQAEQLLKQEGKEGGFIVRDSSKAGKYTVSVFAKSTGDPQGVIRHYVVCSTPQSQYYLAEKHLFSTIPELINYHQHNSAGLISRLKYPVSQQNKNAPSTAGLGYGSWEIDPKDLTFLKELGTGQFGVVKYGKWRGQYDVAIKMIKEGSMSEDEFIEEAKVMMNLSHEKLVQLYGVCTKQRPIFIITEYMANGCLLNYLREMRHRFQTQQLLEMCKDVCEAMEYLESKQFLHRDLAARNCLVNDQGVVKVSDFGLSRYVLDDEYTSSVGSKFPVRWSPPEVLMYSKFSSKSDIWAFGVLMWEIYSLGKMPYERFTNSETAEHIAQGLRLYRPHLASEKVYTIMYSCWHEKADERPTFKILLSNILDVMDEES

Plasma protein binding = format: in vitro ADME; conditions: monkeys
A498 cells = assay: Tumor cell proliferation in vitro; format: cell-based
TT cells = assay: Tumor cell proliferation in vitro; format: cell-based, human
A431 cells = assay: Tumor cell proliferation in vitro; format: cell-based, human; conditions: A431; read-out: IC50, proliferation

For COc1cc2c(Nc3ccc(Br)cc3F)ncnc2cc1OCCCCN(C)C.Cl.Cl [HA121-28, N-(4-bromo-2-fluorophenyl)-7-(4-(dimethylamino)butoxy)-6-methoxy quinazolin-4-amine dihydrochloride], the “RTV ±SD” value ([1]; 12.5 mg/kg) was 11.2±4.7, the T/C ([1]; 12.5 mg/kg) was 54.6% and the “Terminal Tumor Volume” value ([1]; 12.5 mg/kg) was 1860.7±1044.5 mm^3. For the same compound, the “RTV ±SD” value ([1]; 25 mg/kg) was 8.7±5.9, the T/C ([1]; 25 mg/kg) was 42.6% and the “Terminal Tumor Volume” value ([1]; 25 mg/kg) was 1329.3±1001.3* mm^3. For the same compound, the “RTV ±SD” value ([1]; 50 mg/kg) was 5.7±3.1, the T/C ([1]; 50 mg/kg) was 27.7% and the “Terminal Tumor Volume” value ([1]; 50 mg/kg) was 879.7±405.8** mm^3. For the same compound, the “content at 72 h post-dose as fraction of distribution peak” value ([2]; adrenal glands) was 1/8, the “tissue AUC0-72h exposure relative to plasma” value ([2]; bone marrow) was “≈ 1.3 times plasma” and the “tissue AUC0-72h exposure relative to plasma” value ([2]; brain, adipose tissue, muscles) was 3~9 times plasma. The “tissue AUC0-72h exposure relative to plasma” value ([2]; liver, kidneys, ovaries) was “≈ 100 times plasma”, the “time of distribution peak” value ([2]; liver, stomach, intestines) was 0.5 h and the “time of distribution peak” value ([2]; most tissues) was 4 h. The “tissue AUC0-72h exposure relative to plasma” value ([2]; spleen, lungs, adrenal glands) was “≈ 200 times plasma”, the “time of distribution peak” value ([2]; testes) was 24 h and the “content at 72 h post-dose as fraction of distribution peak” value ([2]; uterus) was 1/5. The “tissue AUC0-72h exposure relative to plasma” value ([2]; uterus, testes, thymus, intestines, thyroid, heart, stomach) was 20~60 times plasma, the AUC0-96h (Rat plasma kinetics; 7 consecutive days (10 mg/kg)) was 8420 ± 1720 ng·h/mL and the “AUC0-∞” value (Rat plasma kinetics; 7 consecutive days (10 mg/kg)) was 9690 ± 2310 ng·h/mL. The CL (Rat plasma kinetics; 7 consecutive days (10 mg/kg)) was 39.3 ± 6.53 mL/min/kg, the Cmax (Rat plasma kinetics; 7 consecutive days (10 mg/kg)) was 284 ± 56.8 ng/mL and the “MRT0-∞” value (Rat plasma kinetics; 7 consecutive days (10 mg/kg)) was 40.0 ± 7.30 h. It also gave a Tmax (Rat plasma kinetics; 7 consecutive days (10 mg/kg)) of 6.00 ± 0.00 h, a Vd (Rat plasma kinetics; 7 consecutive days (10 mg/kg)) of 110 ± 24.9 L/kg and a t1/2 (Rat plasma kinetics; 7 consecutive days (10 mg/kg)) of 32.9 ± 7.77 h. For the same compound, the AUC0-96h (Rat plasma kinetics; high dose (20 mg/kg)) was 6460 ± 849 ng·h/mL, the “AUC0-∞” value (Rat plasma kinetics; high dose (20 mg/kg)) was 6760 ± 1040 ng·h/mL and the CL (Rat plasma kinetics; high dose (20 mg/kg)) was 50.3 ± 8.05 mL/min/kg. For the same compound, the Cmax (Rat plasma kinetics; high dose (20 mg/kg)) was 288 ± 38.5 ng/mL, the MRT0-96h (Rat plasma kinetics; high dose (20 mg/kg)) was 22.8 ± 2.85 h and the “MRT0-∞” value (Rat plasma kinetics; high dose (20 mg/kg)) was 27.3 ± 5.24 h. The Tmax (Rat plasma kinetics; high dose (20 mg/kg)) was 5.00 ± 1.55 h, the Vd (Rat plasma kinetics; high dose (20 mg/kg)) was 96.8 ± 8.19 L/kg and the t1/2 (Rat plasma kinetics; high dose (20 mg/kg)) was 22.8 ± 5.00 h. The AUC0-96h (Rat plasma kinetics; intravenous (5 mg/kg)) was 1440 ± 214 ng·h/mL, the “AUC0-∞” value (Rat plasma kinetics; intravenous (5 mg/kg)) was 1470 ± 232 ng·h/mL and the C5min (Rat plasma kinetics; intravenous (5 mg/kg)) was 246 ± 43.1 ng/mL. The CL (Rat plasma kinetics; intravenous (5 mg/kg)) was 57.8 ± 8.8 mL/min/kg, the MRT0-96h (Rat plasma kinetics; intravenous (5 mg/kg)) was 17.2 ± 1.68 h and the “MRT0-∞” value (Rat plasma kinetics; intravenous (5 mg/kg)) was 19.0 ± 2.82 h. For the same compound, the Vd (Rat plasma kinetics; intravenous (5 mg/kg)) was 90.9 ± 12.3 L/kg, the t1/2 (Rat plasma kinetics; intravenous (5 mg/kg)) was 18.5 ± 3.86 h and the AUC0-96h (Rat plasma kinetics; low dose (5 mg/kg)) was 1350 ± 419 ng·h/mL. For the same compound, the “AUC0-∞” value (Rat plasma kinetics; low dose (5 mg/kg)) was 1390 ± 438 ng·h/mL, the CL (Rat plasma kinetics; low dose (5 mg/kg)) was 65.2 ± 19.8 mL/min/kg and the Cmax (Rat plasma kinetics; low dose (5 mg/kg)) was 58.7 ± 12.7 ng/mL. For the same compound, the MRT0-96h (Rat plasma kinetics; low dose (5 mg/kg)) was 19.2 ± 2.41 h, the “MRT0-∞” value (Rat plasma kinetics; low dose (5 mg/kg)) was 21.5 ± 3.23 h and the Tmax (Rat plasma kinetics; low dose (5 mg/kg)) was 5.00 ± 1.10 h. It also gave a Vd (Rat plasma kinetics; low dose (5 mg/kg)) of 93.5 ± 15.9 L/kg, a t1/2 (Rat plasma kinetics; low dose (5 mg/kg)) of 17.4 ± 3.52 h and an AUC0-96h (Rat plasma kinetics; medium dose (10 mg/kg)) of 3200 ± 629 ng·h/mL. For the same compound, the “AUC0-∞” value (Rat plasma kinetics; medium dose (10 mg/kg)) was 3300 ± 696 ng·h/mL, the CL (Rat plasma kinetics; medium dose (10 mg/kg)) was 52.5 ± 11.6 mL/min/kg and the Cmax (Rat plasma kinetics; medium dose (10 mg/kg)) was 147 ± 26.6 ng/mL. The MRT0-96h (Rat plasma kinetics; medium dose (10 mg/kg)) was 21.8 ± 2.80 h, the “MRT0-∞” value (Rat plasma kinetics; medium dose (10 mg/kg)) was 24.7 ± 4.71 h and the Tmax (Rat plasma kinetics; medium dose (10 mg/kg)) was 4.50 ± 1.22 h. For the same compound, the Vd (Rat plasma kinetics; medium dose (10 mg/kg)) was 82.8 ± 9.31 L/kg, the t1/2 (Rat plasma kinetics; medium dose (10 mg/kg)) was 18.8 ± 3.60 h and the “F (oral bioavailability)” value (Rat plasma kinetics; rat) was 93.8%. The IC50 (EphA1) was 86.9 nM, the “number of metabolites found in plasma” value (Metabolites in plasma) was 7 and the AUC0-72h ([3]; gavage (5 mg/kg)) was 1680 ± 766 ng·h/mL. The “AUC0-∞” value ([3]; gavage (5 mg/kg)) was 1920 ± 992 ng·h/mL, the CL ([3]; gavage (5 mg/kg)) was 50.8 ± 20.3 mL/min/kg and the Cmax ([3]; gavage (5 mg/kg)) was 75.9 ± 27.8 ng/mL. The MRT0-72h ([3]; gavage (5 mg/kg)) was 20.9 ± 2.67 h, the “MRT0-∞” value ([3]; gavage (5 mg/kg)) was 30.5 ± 8.00 h and the Tmax ([3]; gavage (5 mg/kg)) was 6.75 ± 1.50 h. For the same compound, the Vd ([3]; gavage (5 mg/kg)) was 100 ± 24.1 L/kg, the t1/2 ([3]; gavage (5 mg/kg)) was 24.4 ± 5.68 h and the AUC0-72h ([3]; intravenous (5 mg/kg)) was 2610 ± 1340 ng·h/mL. For the same compound, the “AUC0-∞” value ([3]; intravenous (5 mg/kg)) was 3000 ± 1880 ng·h/mL, the C6min ([3]; intravenous (5 mg/kg)) was 314 ± 61.4 ng/mL and the CL ([3]; intravenous (5 mg/kg)) was 34.2 ± 13.6 mL/min/kg. For the same compound, the MRT0-72h ([3]; intravenous (5 mg/kg)) was 18.8 ± 3.77 h, the “MRT0-∞” value ([3]; intravenous (5 mg/kg)) was 27.5 ± 11.4 h and the Vd ([3]; intravenous (5 mg/kg)) was 58.7 ± 15.7 L/kg. The t1/2 ([3]; intravenous (5 mg/kg)) was 22.3 ± 8.39 h, the “F (oral bioavailability)” value ([3]; monkey) was 64.4% and the “respiratory function and neurological behavior” value [4] was “did not affect”. The “activation of VEGFR and downstream ERK” value (VEGFR and ERK activation) was “significantly inhibited”, the IC50 (BTK) was 446 nM and the “plasma protein binding rate” value (Plasma protein binding) was 92.5±0.331%. It also gave an IC50 (A498 cells) of 858 ± 17.9 nM, an IC50 (TT cells) of 3830 ± 91.5 nM and an IC50 (A431 cells) of 775 ± 76.7 nM.
